The target of this assay is HCV NS3-4A serine protease (full-length NS3-4A protein) (Hepatitis C virus genotype 1a (isolate 1) (HCV), UniProt P26664). The assay can be described thus: HCV NS3-4A protease assay. Type of assay: biochemical, HCV genotype 1a. The settings on record: strain HCV-1, fluorogenic peptide substrate, read-out: Protease assay Ex. 12 IC50. Here is the method: The inhibitory activity of certain compounds of Table A against HCV NS3-4A serine protease is determined in a homogenous assay using the full-length NS3-4A protein (genotype 1a, strain HCV-1) and a commercially available internally-quenched fluorogenic peptide substrate as described by Taliani, M., et al. 1996 Anal. Biochem. 240:60-67, which is incorporated by reference in its entirety.
Sequence of HCV NS3-4A serine protease (full-length NS3-4A protein) (P26664 1027-1657): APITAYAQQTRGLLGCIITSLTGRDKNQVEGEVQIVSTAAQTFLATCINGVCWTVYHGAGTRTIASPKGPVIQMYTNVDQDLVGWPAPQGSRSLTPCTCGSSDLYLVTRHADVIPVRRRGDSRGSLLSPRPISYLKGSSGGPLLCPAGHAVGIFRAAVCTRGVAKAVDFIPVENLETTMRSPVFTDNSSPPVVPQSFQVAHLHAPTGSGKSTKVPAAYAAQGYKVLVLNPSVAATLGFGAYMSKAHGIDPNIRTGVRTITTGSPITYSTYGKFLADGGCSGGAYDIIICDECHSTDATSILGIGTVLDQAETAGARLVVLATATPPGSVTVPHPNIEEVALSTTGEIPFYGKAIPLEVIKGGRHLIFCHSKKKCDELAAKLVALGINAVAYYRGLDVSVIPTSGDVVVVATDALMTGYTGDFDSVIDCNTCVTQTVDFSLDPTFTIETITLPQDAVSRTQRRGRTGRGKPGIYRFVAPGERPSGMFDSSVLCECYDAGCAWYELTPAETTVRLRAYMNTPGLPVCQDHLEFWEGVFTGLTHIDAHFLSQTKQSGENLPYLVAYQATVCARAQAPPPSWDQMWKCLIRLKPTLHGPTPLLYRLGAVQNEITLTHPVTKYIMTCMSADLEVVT
Sequence of HCV NS3-4A serine protease (full-length NS3-4A protein) (P26664 1658-1711 partner): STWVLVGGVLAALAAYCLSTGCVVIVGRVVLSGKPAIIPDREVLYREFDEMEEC

Experimental findings from patent publication US8613914B2, “Peptidomimetic sulfamide compounds and antiviral uses thereof” (Novartis AG, priority 2009, dated 2013) are described below.

Molecules are shown by their SMILES.

Broadly, the IC50 is the concentration that inhibits the measured activity by half.

For the compound `C=C[C@@H]1C[C@]1(NC(=O)[C@@H]1C[C@@]2(CN1C(=O)[C@@H](NC(=O)[C@@H](NC(=O)[C@@H]1CCCCN1C(C)C)C1CCCCC1)C(C)(C)C)C(C)(C)C21CCC1)C(=O)NS(=O)(=O)N(C)C(C)C` [Compound 108, (5R,8S)-7-[(2S)-2-{[(2S)-2-cyclohexyl-2-({[(2S)-1-isopropylpiperidin-2-yl]carbonyl}amino)acetyl]amino}-3,3-dimethylbutanoyl]-N-[(1R,2S)-1-({[isopropyl(methyl)amino]sulfonyl}carbamoyl)-2-vinylcyclopropyl]-10,10-dimethyl-7-azadispiro[3.0.4.1]decane-8-carboxamide], the IC50 amounted to 6 nM.
In the case of `[2H]C([2H])([2H])N(C([2H])([2H])[2H])S(=O)(=O)NC(=O)[C@@]1(NC(=O)[C@@H]2C[C@@]3(CN2C(=O)[C@@H](NC(=O)[C@@H](NC(=O)[C@@H]2CCCCN2C(C)C)C2CCCCC2)C(C)(C)C)C(C)(C)C32CCC2)C[C@H]1C=C` [Compound 148, (5R,8S)-7-[(2S)-2-{[(2S)-2-cyclohexyl-2-({[(2S)-1-isopropylpiperidin-2-yl]carbonyl}amino)acetyl]amino}-3,3-dimethylbutanoyl]-N-[(1R,2S)-1-{[(d6-dimethylamino)sulfonyl]carbamoyl}-2-vinylcyclopropyl]-10,10-dimethyl-7-azadispiro[3.0.4.1]decane-8-carboxamide-d6], the half-maximal inhibitory concentration (IC50) worked out at 0.8 nM.
In the case of `C=C[C@@H]1C[C@]1(NC(=O)[C@@H]1C[C@@]2(CN1C(=O)[C@@H](NC(=O)[C@@H](NC(=O)[C@@H]1CCCCN1C(C)C)c1ccccc1)C(C)(C)C)C(C)(C)C21CCC1)C(=O)NS(=O)(=O)N1CCCC1` [Compound 104, (5R,8S)-7-[(2S)-2-{[(2S)-2-({[(2S)-1-isopropylpiperidin-2-yl]carbonyl}amino)-2-phenylacetyl]amino}-3,3-dimethylbutanoyl]-10,10-dimethyl-N-{(1R,2S)-1-[(pyrrolidin-1-ylsulfonyl)carbamoyl]-2-vinylcyclopropyl}-7-azadispiro[3.0.4.1]decane-8-carboxamide], the IC50 was found to be 15 nM.
As to `C=C[C@@H]1C[C@]1(NC(=O)[C@@H]1C[C@@]2(CN1C(=O)[C@@H](NC(=O)[C@@H](NC(=O)c1cccnc1N(C)C)C1CCCCC1)C(C)(C)C)C(C)(C)C21CCC1)C(=O)NS(=O)(=O)N1CCCC1` [Compound 70, (5R,8S)-7-[(2S)-2-{[(2S)-2-cyclohexyl-2-({[2-(dimethylamino)pyridin-3-yl]carbonyl}amino)acetyl]amino}-3,3-dimethylbutanoyl]-10,10-dimethyl-N-{(1R,2S)-1-[(pyrrolidin-1-ylsulfonyl)carbamoyl]-2-vinylcyclopropyl}-7-azadispiro[3.0.4.1]decane-8-carboxamide], the IC50 is 35 nM.
In the case of `C=C[C@@H]1C[C@]1(NC(=O)[C@@H]1C[C@@]2(CN1C(=O)[C@@H](NC(=O)[C@@H](NC(=O)[C@H]1CCCCN1C(C)C)C1CCCCC1)C(C)(C)C)C(C)(C)C21CCC1)C(=O)NS(=O)(=O)N(C)C(C)C` [Compound 119, (5R,8S)-7-[(2S)-2-{[(2S)-2-cyclohexyl-2-({[(2R)-1-isopropylpiperidin-2-yl]carbonyl}amino)acetyl]amino}-3,3-dimethylbutanoyl]-N-[(1R,2S)-1-({[isopropyl(methyl)amino]sulfonyl}carbamoyl)-2-vinylcyclopropyl]-10,10-dimethyl-7-azadispiro[3.0.4.1]decane-8-carboxamide], the half-inhibitory concentration (IC50) turned out to be 6.5 nM.
Consider `C=C[C@@H]1C[C@]1(NC(=O)[C@@H]1C[C@@]2(CN1C(=O)[C@@H](NC(=O)[C@@H](NC(=O)[C@@H]1CCCCN1C(C)C)C1CCCCC1)C(C)(C)C)C(C)(C)C21CCC1)C(=O)NS(=O)(=O)N(C)CC` [Compound 170, (5R,8S)-7-[(2S)-2-{[(2S)-2-cyclohexyl-2-({[(2S)-1-isopropylpiperidin-2-yl]carbonyl}amino)acetyl]amino}-3,3-dimethylbutanoyl]-N-[(1R,2S)-1-({[ethyl(methyl)amino]sulfonyl}carbamoyl)-2-vinylcyclopropyl]-10,10-dimethyl-7-azadispiro[3.0.4.1]decane-8-carboxamide], for which the IC50 turned out to be 0.5 nM.
Consider `C=C[C@@H]1C[C@]1(NC(=O)[C@@H]1C[C@@]2(CN1C(=O)[C@@H](NC(=O)[C@@H](NC(=O)[C@@H]1CCCCN1C(C)C)C(C)(C)C)C(C)(C)C)C(C)(C)C21CCC1)C(=O)NS(=O)(=O)N1CCCC1` [Compound 3, (5R,8S)-7-[(2S)-2-{[(2S)-2-({[(2S)-1-isopropylpiperidin-2-yl]carbonyl}amino)-3,3-dimethylbutanoyl]amino}-3,3-dimethylbutanoyl]-10,10-dimethyl-N-{(1R,2S)-1-[(pyrrolidin-1-ylsulfonyl)carbamoyl]-2-vinylcyclopropyl}-7-azadispiro[3.0.4.1]decane-8-carboxamide], for which the half-maximal inhibitory concentration (IC50) was determined as 6 nM.
For the compound `C=C[C@@H]1C[C@]1(NC(=O)[C@@H]1C[C@@]2(CN1C(=O)[C@@H](NC(=O)[C@@H](NC(=O)[C@@H]1CCCN(CC)C1)C(C)(C)C)C(C)(C)C)C(C)(C)C21CCC1)C(=O)NS(=O)(=O)N1CCOCC1` [Compound 7, (5R,8S)-7-[(2S)-2-{[(2S)-2-({[(3R)-1-ethylpiperidin-3-yl]carbonyl}amino)-3,3-dimethylbutanoyl]amino}-3,3-dimethylbutanoyl]-10,10-dimethyl-N-{(1R,2S)-1-[(morpholin-4-ylsulfonyl)carbamoyl]-2-vinylcyclopropyl}-7-azadispiro[3.0.4.1]decane-8-carboxamide], the concentration for half-maximal inhibition (IC50) amounted to 450 nM.
With `C=C[C@@H]1C[C@]1(NC(=O)[C@@H]1C[C@@]2(CN1C(=O)[C@@H](NC(=O)[C@@H](NC(=O)c1cnccn1)C1CCCCC1)C(C)(C)C)C(C)(C)C21CCC1)C(=O)NS(=O)(=O)N(C)CC` [Compound 167, (5R,8S)-7-[(2S)-2-({(2S)-2-cyclohexyl-2-[(pyrazin-2-ylcarbonyl)amino]acetyl}amino)-3,3-dimethylbutanoyl]-N-[(1R,2S)-1-({[ethyl(methyl)amino]sulfonyl}carbamoyl)-2-vinylcyclopropyl]-10,10-dimethyl-7-azadispiro[3.0.4.1]decane-8-carboxamide], the IC50 is 0.6 nM.
The figure for `CC[C@@H]1C[C@]1(NC(=O)[C@@H]1C[C@@]2(CN1C(=O)[C@@H](NC(=O)[C@@H](NC(=O)[C@@H]1CCCCN1CC)C1CCCCC1)C(C)(C)C)C(C)(C)C21CCC1)C(=O)NS(=O)(=O)N(CC)CC` [Compound 86, (5R,8S)-7-[(2S)-2-{[(2S)-2-cyclohexyl-2-({[(2S)-1-ethylpiperidin-2-yl]carbonyl}amino)acetyl]amino}-3,3-dimethylbutanoyl]-N-[(1R,2R)-1-{[(diethylamino)sulfonyl]carbamoyl}-2-ethylcyclopropyl]-10,10-dimethyl-7-azadispiro[3.0.4.1]decane-8-carboxamide] is 4.5 nM.
Then `C=C[C@@H]1C[C@]1(NC(=O)[C@@H]1C[C@@]2(CN1C(=O)[C@@H](NC(=O)[C@@H](NC(=O)[C@@H]1CCCN1CC)C1(C)CCCCC1)C1(C)CCOCC1)C(C)(C)C21CCC1)C(=O)NS(=O)(=O)N1CCCC1` [Compound 146, (5R,8S)-7-[(2S)-2-{[(2S)-2-({[(2S)-1-ethylpyrrolidin-2-yl]carbonyl}amino)-2-(1-methylcyclohexyl)acetyl]amino}-2-(4-methyltetrahydro-2H-pyran-4-yl)acetyl]-10,10-dimethyl-N-{(1R,2S)-1-[(pyrrolidin-1-ylsulfonyl)carbamoyl]-2-vinylcyclopropyl}-7-azadispiro[3.0.4.1]decane-8-carboxamide], with 3 nM.
`C=C[C@@H]1C[C@]1(NC(=O)[C@@H]1C[C@@]2(CN1C(=O)[C@@H](NC(=O)[C@@H](NC(=O)c1cc3ccccc3o1)C1CCCCC1)C(C)(C)C)C(C)(C)C21CCC1)C(=O)NS(=O)(=O)N1CCCC1` [Compound 191, (5R,8S)-7-[(2S)-2-({[(1-benzofuran-2-ylcarbonyl)amino](cyclohexyl)acetyl}amino)-3,3-dimethylbutanoyl]-10,10-dimethyl-N-{(1R,2S)-1-[(pyrrolidin-1-ylsulfonyl)carbamoyl]-2-vinylcyclopropyl}-7-azadispiro[3.0.4.1]decane-8-carboxamide]: the 50% inhibitory concentration (IC50) stood at 55 nM.
Take `C=C[C@@H]1C[C@]1(NC(=O)[C@@H]1C[C@@]2(CN1C(=O)[C@@H](NC(=O)[C@@H](NC(=O)[C@@H]1CCCCN1C(C)C)C1CCCCC1)C(C)C)C(C)(C)C21CCC1)C(=O)NS(=O)(=O)N(CC)CC` [Compound 132, (5R,8S)-7-[(2S)-2-{[(2S)-2-cyclohexyl-2-({[(2S)-1-isopropylpiperidin-2-yl]carbonyl}amino)acetyl]amino}-3-methylbutanoyl]-N-[(1R,2S)-1-{[(diethylamino)sulfonyl]carbamoyl}-2-vinylcyclopropyl]-10,10-dimethyl-7-azadispiro[3.0.4.1]decane-8-carboxamide]: the IC50 was 2.8 nM.
For `C=C[C@@H]1C[C@]1(NC(=O)[C@@H]1C[C@@]2(CN1C(=O)[C@@H](NC(=O)[C@@H](NC(=O)[C@@H]1CCCCN1CCOC)C1CCCCC1)C(C)(C)C)C(C)(C)C21CCC1)C(=O)NS(=O)(=O)N1CCCC1` [Compound 33, (5R,8S)-7-[(2S)-2-{[(2S)-2-cyclohexyl-2-({[(2S)-1-(2-methoxyethyl)piperidin-2-yl]carbonyl}amino)acetyl]amino}-3,3-dimethylbutanoyl]-10,10-dimethyl-N-{(1R,2S)-1-[(pyrrolidin-1-ylsulfonyl)carbamoyl]-2-vinylcyclopropyl}-7-azadispiro[3.0.4.1]decane-8-carboxamide], the half-inhibitory concentration (IC50) was 3.5 nM.
